These results are taken from patent US20070053950A1, “Composition of polymer microcapsules of biocide for coating material” (priority 2005, published 2007).

What all share (format): cell-based
The test system of one experiment is Chlorella fusca. Description: Filter paper bioassay, antialgal activity of biocide dispersed in paint. Conditions: around 5 wt % Irgarol in paint; taken after 0, 15 and 30 days of dispersion; even after 100 days. An excerpt: (§1) W. et.al., Amer. J. Clin. Pathol., 45 (1966) p 493-496 and Thomberry, H. H. Phytopathology 40 (1950) p 419-420). […] The antifungal activity of all the composition samples is indicated by zone of inhibition that is developed around the filter paper discs against the vegetative growth after the spore germination. […] Similar type of results are obtained when microcapsules stored in paint for 12 days and 30 days are taken for such biocidal analysis. The antialgal activity of microencapsulated Irgarol and unencapsulated Irgarol against algal strains (Oscillatoria tenius and Chlorella fusca) is assessed by filter paper bioassay by method as described above for fungal activity. Unencpasulated Irgarol and microcapsules of Irgarol are dispersed in paint such that the concentration of Irgarol is around 5 wt % based on weight of paint and taken for analysis after 0 days, 15 days and 30 days of dispersion period.

The subject of the next experiment is Oscillatoria tenius. The experiment is described as above. The note with it: around 5 wt % Irgarol in paint; taken after 0, 15 and 30 days of dispersion; even after 100 days.
Description: as §1

In experiment [1] the test system is fungal strain Aspergillus niger (NRRL337). Description: Filter paper bioassay, antifungal activity of biocide dispersed in paint (zone of inhibition). The note with it: sample taken after 0 days of dispersion. The protocol: Microcapsules of Zinc Pyrithione and unencpasulated Zinc Pyrithione are dispersed in paint such that the concentration of Zinc Pyrithione is around 5 wt % based on weight of paint and taken for analysis after 0 days, 12 days and 30 days of dispersion period. The antifungal activity of all the composition samples is indicated by zone of inhibition that is developed around the filter paper discs against the vegetative growth after the spore germination. The zone of inhibition is measured after 2 days and 100 days after the day on which samples are taken for filter paper bioassay.

As to `CSc1nc(NC2CC2)nc(NC(C)(C)C)n1` [unencapsulated irgarol, Irgarol], the “inhibitory activity against algal strain” value in the experiment on Chlorella fusca and in the experiment with Oscillatoria tenius was “very strong inhibitory activity” throughout.
Consider “Zinc Pyrithione [Unencapsulated Zinc Pyrithione]”, for which the “Zone of inhibition (mm) (after 2 days) A” value in experiment [1] (around 5 wt % Zinc Pyrithione in paint, zone measured after 2 days) is reported as 41 mm. In addition, the “Zone of inhibition (mm) (after 100 days) B” value in experiment [1] (around 5 wt % Zinc Pyrithione in paint, zone measured after 100 days) is listed as 32 mm. Also, the “% Reduction in inhibition zone C = [(A − B) × 100]/A” value in experiment [1] (around 5 wt % biocide in paint, from 2 days to 100 days) worked out at 21.9%.
